Data on 11 compounds can be found in ChEMBL document CHEMBL3797024, “Exploring new chemical functionalities to improve aromatase inhibition of steroids” (Bioorg Med Chem, 2016).

The target in test [1] is T1, Aromatase (Homo sapiens, UniProt P11511).
T1 sequence (P11511 whole entry): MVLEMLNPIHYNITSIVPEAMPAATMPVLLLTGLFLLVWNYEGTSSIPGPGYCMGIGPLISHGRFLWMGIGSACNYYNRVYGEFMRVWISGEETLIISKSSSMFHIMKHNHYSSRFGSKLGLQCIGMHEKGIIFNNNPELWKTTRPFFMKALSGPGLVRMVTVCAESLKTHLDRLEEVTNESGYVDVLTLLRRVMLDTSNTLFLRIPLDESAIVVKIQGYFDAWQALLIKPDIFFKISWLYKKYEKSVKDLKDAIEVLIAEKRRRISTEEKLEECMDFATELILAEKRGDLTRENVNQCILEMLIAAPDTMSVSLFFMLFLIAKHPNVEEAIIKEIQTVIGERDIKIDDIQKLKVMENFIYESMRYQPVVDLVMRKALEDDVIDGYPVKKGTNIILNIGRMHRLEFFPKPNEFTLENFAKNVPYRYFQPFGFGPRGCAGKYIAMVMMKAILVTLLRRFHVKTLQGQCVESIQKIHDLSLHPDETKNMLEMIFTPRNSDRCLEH
Description: Inhibition of human placental aromatase expressed in human MCF7 cells using [1beta-3H]-androstenedione as substrate assessed as tritiated H2O release at 10 uM after 1 hr by liquid scintillation counting method in presence of progesterone relative to control. The class given is cell-based.

Test [2] has as its target T1, Aromatase. Briefly: Inhibition of aromatase in human placental microsomes using [1beta-3H]-androstenedione as substrate assessed as tritiated H2O release at 2 uM after 15 mins by liquid scintillation counting method relative to control. Also noted: species or system Placenta. The conditions noted are these: 0.25 h.
Test [3] concerns the target T1, Aromatase. Description: Inhibition of aromatase in human placental microsomes using [1beta-3H]-androstenedione as substrate assessed as tritiated H2O release after 15 mins by liquid scintillation counting method. Also noted: species or system Placenta.
For test [4], the target named is T1, Aromatase. Description: Inhibition of aromatase in human placental microsomes using [1beta-3H]-androstenedione as substrate assessed as tritiated H2O release at 0.5 uM after 15 mins by liquid scintillation counting method relative to control. Further details: species or system Placenta. The conditions noted are these: 0.25 h.
The target in test [5] is T1, Aromatase. Briefly: Inhibition of human placental aromatase expressed in human MCF7 cells using [1beta-3H]-androstenedione as substrate at 1 uM after 1 hr by liquid scintillation counting method in presence of progesterone relative to control. The class given is cell-based.

For orientation: inhibition means the share of the control response that was lost under treatment. On to `C[C@]12CCC=C[C@@H]1CC[C@@H]1[C@@H]2CC[C@]2(C)C(=O)CC[C@@H]12`, for which, in test [1], the inhibition at 10 µM came out at 56.9%.

Regarding `C[C@]12CC[C@H]3O[C@H]3[C@@H]1CC[C@@H]1[C@@H]2CC[C@]2(C)C(=O)CC[C@@H]12`, the inhibition at 10 µM in test [1] was 80.4%.

With `C[C@]12CCCC=C1CC[C@@H]1[C@@H]2CC[C@]2(C)C(=O)CC[C@@H]12`, the inhibition at 10 µM in test [1] was determined as 62.6%.

In the case of `C[C@]12CC[C@H]3[C@@H](CC[C@@]45O[C@@H]4CCC[C@]35C)[C@@H]1CCC2=O`, in test [1], the inhibition at 10 µM amounted to 53.2%.

As to `C=CC[C@@H]1CC2=CC(=O)C=C[C@]2(C)[C@H]2CC[C@]3(C)C(=O)CC[C@H]3[C@H]12`, the inhibition at 2 µM in test [2] turned out to be 94.5%. The inhibition at 10 µM in test [1] is 94.2%.

On to `C[C@]12C=CC(=O)C=C1C[C@@H](CC1CO1)[C@@H]1[C@@H]2CC[C@]2(C)C(=O)CC[C@@H]12` (some centres undefined), for which, in test [2], the inhibition at 2 µM was found to be 76.3%. The inhibition at 10 µM in test [1] is 72.3%.

For orientation: IC50 means the concentration needed to halve the response being measured. For the compound `C[C@]12CC[C@H]3C[C@H]3[C@@H]1CC[C@@H]1[C@@H]2CC[C@]2(C)C(=O)CC[C@@H]12`, in test [2], the inhibition at 2 µM is 95.3%. For the same compound, in test [3], the IC50 amounted to 110 nM. Moreover, the inhibition at 10 µM in test [1] was 89.3%.

For `C[C@]12CCC(=O)C=C1CC[C@@H]1C2=CC[C@]2(C)C(=O)CC[C@@H]12`, the inhibition at 2 µM in test [2] was 95.2%. The inhibition at 10 µM in test [1] came to 96.4%.

With `C[C@]12CC[C@H]3[C@@H](CC[C@]45O[C@H]4CCC[C@]35C)[C@@H]1CCC2=O`, the inhibition at 2 µM in test [2] came to 85.5%. For the same compound, the IC50 in test [3] was 530 nM. Moreover, the inhibition at 10 µM in test [1] turned out to be 64.8%.

As for `C[C@]12CCC3=C(OCCO3)C1=CC[C@@H]1[C@@H]2CC[C@]2(C)C(=O)CC[C@@H]12`, the inhibition at 2 µM in test [2] is 55.9%.

In the case of `C[C@]12CCC(=O)C(O)=C1CC[C@@H]1[C@@H]2CC[C@]2(C)C(=O)CC[C@@H]12` [FORMESTANE], the inhibition at 0.5 µM in test [4] turned out to be 99.2%. In addition, the inhibition at 1 µM in test [5] was found to be 96.1%.
